Assay results taken from US5468633A, “Human endothelin converting enzyme obtained from blood or placenta” (Nisshin Flour Milling Co., Ltd., priority 1993, dated 1995).

Test system: endothelin converting enzyme
Experiment: Effects of various inhibitors on the activity of converting big endothelin-1 to endothelin-1 (residual enzymatic activity)
Format: biochemical, human
Details: 37° C., 30 minutes preincubation, pH 7.0, untreated enzyme = 100
Procedure: 15 μl of a 20 nmol/ml big endothelin-1 solution was added to 0.3 ml of an enzyme solution (10 mM tris-hydrochloric acid-0.15M sodium chloride buffer; pH 7.0), and the mixture was reacted at 37° C. for 6 hours. After completion of the reaction, 6 μl of a 0.1M EDTA solution was added to terminate the reaction.
Subsequently, the resultant endothelin-1 was assayed according to a sandwich enzyme immunoassay (EIA) method. An enzymatic activity of converting 1 pmol of big endothelin-1 to endothelin-1 per hour under the above-described reaction conditions is termed 1 U (unit).
A sample and an endothelin standard solution of a predetermined concentration were respectively applied to a 96-hole microplate on which anti-endothelin monoclonal antibody had been immobilized to thereby cause the reaction. After washing the microplate, peroxidase-labeled anti-endothelin polyclonal antibody was added to thereby cause the reaction. After washing the microplate, activity of bound peroxidase was assayed. Endothelin-1 in the sample was assayed based on the calibration curve drawn by using endothelin standard solutions having a predetermined concentration of endothelin.
The enzyme of the invention was tested for the effects of various inhibitors against the activity of converting big endothelin-1 to endothelin-1.
The enzyme was incubated in 0.3 ml of a reaction solution (10 mM tris-hydrochloric acid-0.15M sodium chloride buffer; pH 7.0) containing various inhibitors at 37° C. for 30 minutes, and the residual enzymatic activity was measured in the above-described manner. Residual activities in the presence of various inhibitors are shown in Table 1 as relative activity taking the activity of untreated enzyme as 100.

| Relative Activity (%) (inhibitor 0.1 mM) | Structure (SMILES) | other results |
| --- | --- | --- |
| – | O=S(=O)(F)Cc1ccccc1 [Phenylmethanesulfonyl fluoride] | Relative Activity (%) (inhibitor 1 mM): 7% |
| 0% | O=C(O)CNC(=O)C(CS)Cc1ccccc1 (stereo not shown) [Thiorphan] | – |
| – | CC(C)C[C@H](NC(=O)[C@@H](NC(=O)N[C@@H](Cc1ccccc1)C(=O)O)[C@@H]1CCN=C(N)N1)C(=O)N[C@H](C=O)Cc1ccccc1 [Chymostatin] | Relative Activity (%) (inhibitor 0.01 mM): 20% |
| 0% | CC(C)C[C@H](NP(=O)(O)O[C@@H]1O[C@@H](C)[C@H](O)[C@@H](O)[C@H]1O)C(=O)N[C@@H](Cc1c[nH]c2ccccc12)C(=O)O [Phosphoramidon] | – |
